Key:
[1] = tested on: α-isomaltosylglucosaccharide-forming enzyme; experiment: Action on saccharides as substrates (TLC), enzyme of C11 strain; assay type: biochemical, Bacillus globisporus C11 strain; design: key: −: it showed no change; +: it showed a slight reduction of the color spot of the substrate and the formation of other reaction product; ++: it showed a high reduction of the color spot of the substrate and the formation of other reaction product; +++: it showed a substantial disappearance of the substrate spot and the formation of other reaction product; conditions: two units/g substrate, substrate 2% (w/v), 30° C., pH 6.0, 24 hours
Excerpt: (§1) To examine the saccharides in the supernatant, they were separated by developing twice on silica gel thin-layer chromatography (abbreviated as “TLC” hereinafter) using, as a developer, a mixture solution of n-butanol, pyridine, and water (=6:4:1 by volume), and, as a thin-layer plate, “[…]™ 60”, an aluminum plate (20×20 cm) for TLC commercialized by Merck & Co., Inc., Rahway, USA. The coloration of the separated total sugars by the sulfuric acid-methanol method and that of the reducing saccharides by the diphenylamine-aniline method detected a non-reducing saccharide positive at an Rf value of about 0.31 on the former detection method but negative on the latter detection method.
(§2) It was tested whether any saccharides can be used as substrates for α-isomaltosylglucosaccharide-forming enzyme. For the purpose, a solution of maltose, maltotriose, maltotetraose, maltopentaose, maltohexaose, maltoheptaose, isomaltose, isomaltotriose, panose, isopanose, α,α-trehalose, kojibiose, nigerose, neotrehalose, cellobiose, gentibiose, maltitol, maltotriitol, lactose, sucrose, erlose, selaginose, maltosyl glucoside, or isomaltosyl glucoside was prepared.
(§3) To each of the above solutions was added two units/g substrate of a purified specimen of α-isomaltosylglucosaccharide-forming enzyme from either Bacillus globisporus C9 strain obtained by the method in Experiment 4-2, Bacillus globisporus C11 strain obtained by the method in Experiment 7-2, Bacillus globisporus N75 strain obtained by the method in Experiment 11-2, or Arthrobacter globiformis A19 strain obtained by the method in Experiment 15-2, and the resulting each solution was adjusted to give a substrate concentration of 2% (w/v) and incubated at 30° C. and pH 6.0 for 24 hours, except for using pH 8.4 for the enzyme from Arthrobacter globiformis A19 strain. The enzyme solutions before and after the enzymatic reactions were respectively analyzed on TLC disclosed in Experiment 1 to confirm whether the enzymes acted on these substrates.

[2] = tested on: α-isomaltosylglucosaccharide-forming enzyme; experiment: Action on saccharides as substrates (TLC), enzyme of C9 strain; assay type: biochemical, Bacillus globisporus C9 strain; design: key: −: it showed no change; +: it showed a slight reduction of the color spot of the substrate and the formation of other reaction product; ++: it showed a high reduction of the color spot of the substrate and the formation of other reaction product; +++: it showed a substantial disappearance of the substrate spot and the formation of other reaction product; conditions: two units/g substrate, substrate 2% (w/v), 30° C., pH 6.0, 24 hours
Excerpt: as §1, §2, §3

[3] = tested on: α-isomaltosylglucosaccharide-forming enzyme; experiment: Action on saccharides as substrates (TLC), enzyme of A19 strain; assay type: biochemical, Arthrobacter globiformis A19 strain; design: key: −: it showed no change; +: it showed a slight reduction of the color spot of the substrate and the formation of other reaction product; ++: it showed a high reduction of the color spot of the substrate and the formation of other reaction product; +++: it showed a substantial disappearance of the substrate spot and the formation of other reaction product; conditions: two units/g substrate, substrate 2% (w/v), 30° C., pH 8.4, 24 hours
Excerpt: as §1, §2, §3

[4] = tested on: α-isomaltosylglucosaccharide-forming enzyme; experiment: Action on saccharides as substrates (TLC), enzyme of N75 strain; assay type: biochemical, Bacillus globisporus N75 strain; design: key: −: it showed no change; +: it showed a slight reduction of the color spot of the substrate and the formation of other reaction product; ++: it showed a high reduction of the color spot of the substrate and the formation of other reaction product; +++: it showed a substantial disappearance of the substrate spot and the formation of other reaction product; conditions: two units/g substrate, substrate 2% (w/v), 30° C., pH 6.0, 24 hours
Excerpt: as §1, §2, §3

[5] = tested on: α-isomaltosylglucosaccharide-forming enzyme; experiment: Transfer-acceptor specificity, enzyme of C11 strain; assay type: biochemical, Bacillus globisporus C11 strain; design: key: −: no saccharide-transferred product was detected through transfer reaction to acceptor; ±: a saccharide-transferred product was detected in an amount less than one percent through transfer reaction to acceptor; +: a saccharide-transferred product was detected in an amount over one percent but less than 10% through transfer reaction to acceptor; ++: a saccharide-transferred product was detected in an amount over ten percent through transfer reaction to acceptor; conditions: acceptor 1.6%, PINE-DEX #100 donor 4%, one unit/g donor, 30° C., pH 6.0, 24 hours
Procedure: (§4) Using various saccharides, it was tested whether the saccharides were used as transferring-acceptors for α-isomaltosylglucosaccharide-forming enzyme. A solution of D-glucose, D-xylose, L-xylose, D-galactose, D-fructose, D-mannose, D-arabinose, D-fucose, D-psicose, L-sorbose, L-rhamnose, methyl-α-glucopyranoside, methyl-β-glucopyranoside, N-acetyl-glucosamine, sorbitol, α,α-trehalose, isomaltose, isomaltotriose, cellobiose, gentibiose, glycerol, maltitol, lactose, sucrose, α-cyclodextrin, β-cyclodextrin, γ-cyclodextrin, or L-ascorbic acid was prepared. To each solution with a saccharide concentration of 1.6% was added “PINE-DEX #100”, a partial starch hydrolyzate, as a saccharide donor, to give a concentration of 4%, and admixed with one unit/g saccharide donor, d.s.b., of either of purified specimens of α-isomaltosylglucosaccharide-forming enzyme from Bacillus globisporus C9 strain obtained by the method in Experiment 4-2, Bacillus globisporus C11 strain obtained by the method in Experiment 7-2, Bacillus globisporus N75 strain obtained by the method in Experiment 11-2, or Arthrobacter globiformis A19 strain obtained by the method in Experiment 15-2, and incubated at 30° C. and pH 6.0 for 24 hours, except that pH 8.4 was used for the enzyme from Arthrobacter globiformis A19 strain. The reaction mixtures of the post-enzymatic reactions were analyzed on gas chromatography (abbreviated as “GLC” hereinafter) for monosaccharides and disaccharides as acceptors, and on HPLC for trisaccharides as acceptors to confirm whether these saccharides could be used as the transfer acceptors of the above enzymes. In the case of performing GLC, the following apparatuses and conditions were used: GLC apparatus, “GC-16A” commercialized by Shimadzu Corporation, Tokyo, Japan; column, a stainless-steel column, 3 mm in diameter and 2 m in length, packed with 2% “SILICONE OV-17/CHROMOSOLV W”, commercialized by GL Sciences Inc., Tokyo, Japan; carrier gas, nitrogen gas at a flow rate of 40 ml/min under temperature conditions of increasing from 160° C. to 320° C. at an increasing temperature rate of 7.5° C./min; and detection, a hydrogen flame ionization detector. In the case of performing HPLC analysis, the following apparatuses and conditions were used: HPLC apparatus, “CCPD” commercialized by Tosoh Corporation, Tokyo, Japan; column, “ODS-AQ-303” commercialized by YMC Co., Ltd., Tokyo, Japan; eluent, water at a flow rate of 0.5 ml/min; and detection, a differential refractometer.

[6] = tested on: α-isomaltosylglucosaccharide-forming enzyme; experiment: Transfer-acceptor specificity, enzyme of C9 strain; assay type: biochemical, Bacillus globisporus C9 strain; design: key: −: no saccharide-transferred product was detected through transfer reaction to acceptor; ±: a saccharide-transferred product was detected in an amount less than one percent through transfer reaction to acceptor; +: a saccharide-transferred product was detected in an amount over one percent but less than 10% through transfer reaction to acceptor; ++: a saccharide-transferred product was detected in an amount over ten percent through transfer reaction to acceptor; conditions: acceptor 1.6%, PINE-DEX #100 donor 4%, one unit/g donor, 30° C., pH 6.0, 24 hours
Procedure: as §4

[7] = tested on: α-isomaltosylglucosaccharide-forming enzyme; experiment: Transfer-acceptor specificity, enzyme of N75 strain; assay type: biochemical, Bacillus globisporus N75 strain; design: key: −: no saccharide-transferred product was detected through transfer reaction to acceptor; ±: a saccharide-transferred product was detected in an amount less than one percent through transfer reaction to acceptor; +: a saccharide-transferred product was detected in an amount over one percent but less than 10% through transfer reaction to acceptor; ++: a saccharide-transferred product was detected in an amount over ten percent through transfer reaction to acceptor; conditions: acceptor 1.6%, PINE-DEX #100 donor 4%, one unit/g donor, 30° C., pH 6.0, 24 hours
Procedure: as §4

[8] = tested on: α-isomaltosylglucosaccharide-forming enzyme; experiment: Transfer-acceptor specificity, enzyme of A19 strain; assay type: biochemical, Arthrobacter globiformis A19 strain; design: key: −: no saccharide-transferred product was detected through transfer reaction to acceptor; ±: a saccharide-transferred product was detected in an amount less than one percent through transfer reaction to acceptor; +: a saccharide-transferred product was detected in an amount over one percent but less than 10% through transfer reaction to acceptor; ++: a saccharide-transferred product was detected in an amount over ten percent through transfer reaction to acceptor; conditions: acceptor 1.6%, PINE-DEX #100 donor 4%, one unit/g donor, 30° C., pH 8.4, 24 hours
Procedure: as §4

## OC[C@H]1O[C@@](CO)(O[C@H]2O[C@H](CO)[C@@H](O[C@H]3O[C@H](CO)[C@@H](O)[C@H](O)[C@H]3O)[C@H](O)[C@H]2O)[C@@H](O)[C@@H]1O [Erlose, erlose]
[1]
  Enzymatic action, Enzyme of C11 strain: +
[2]
  Enzymatic action, Enzyme of C9 strain: +
[3]
  Enzymatic action, Enzyme of A19 strain: +
[4]
  Enzymatic action, Enzyme of N75 strain: +

## OC[C@H]1O[C@H](O[C@H]2[C@H](O)[C@@H](O)[C@@H](OC[C@H]3OC(O)[C@H](O)[C@@H](O)[C@@H]3O)O[C@@H]2CO)[C@H](O)[C@@H](O)[C@@H]1O (stereo partly drawn) [Isopanose, isopanose]
[1]
  Enzymatic action, Enzyme of C11 strain: ++
[2]
  Enzymatic action, Enzyme of C9 strain: ++
[3]
  Enzymatic action, Enzyme of A19 strain: ++
[4]
  Enzymatic action, Enzyme of N75 strain: ++

## OC[C@H]1O[C@H](O[C@H]2C(O)O[C@H](CO)[C@@H](O)[C@@H]2O)[C@H](O)[C@@H](O)[C@@H]1O (stereo partly drawn) [Kojibiose, kojibiose]
[1]
  Enzymatic action, Enzyme of C11 strain: +
[2]
  Enzymatic action, Enzyme of C9 strain: +
[3]
  Enzymatic action, Enzyme of A19 strain: +
[4]
  Enzymatic action, Enzyme of N75 strain: +

## OC[C@H]1O[C@H](O[C@H]2[C@H](O)[C@@H](O)[C@H](O)O[C@@H]2CO)[C@H](O)[C@@H](O)[C@@H]1O [Maltose, maltose]
[1]
  Enzymatic action, Enzyme of C11 strain: +
[2]
  Enzymatic action, Enzyme of C9 strain: +
[3]
  Enzymatic action, Enzyme of A19 strain: +
[4]
  Enzymatic action, Enzyme of N75 strain: +

## OC[C@H]1O[C@H](O[C@H]2O[C@H](CO)[C@@H](O[C@H]3O[C@H](CO)[C@@H](O)[C@H](O)[C@H]3O)[C@H](O)[C@H]2O)[C@H](O)[C@@H](O)[C@@H]1O [Maltosyl glucoside, maltosyl glucoside]
[1]
  Enzymatic action, Enzyme of C11 strain: ++
[2]
  Enzymatic action, Enzyme of C9 strain: ++
[3]
  Enzymatic action, Enzyme of A19 strain: ++
[4]
  Enzymatic action, Enzyme of N75 strain: ++

## OC[C@@H](O)[C@@H](O)[C@H](O)[C@@H](O)CO [Sorbitol, sorbitol]
[5]
  Product of transferring reaction, Enzyme of C11 strain: −
[6]
  Product of transferring reaction, Enzyme of C9 strain: −
[7]
  Product of transferring reaction, Enzyme of N75 strain: −
[8]
  Product of transferring reaction, Enzyme of A19 strain: −

## OC[C@H]1O[C@@H]2O[C@H]3[C@H](O)[C@@H](O)[C@@H](O[C@H]4[C@H](O)[C@@H](O)[C@@H](O[C@H]5[C@H](O)[C@@H](O)[C@@H](O[C@H]6[C@H](O)[C@@H](O)[C@@H](O[C@H]7[C@H](O)[C@@H](O)[C@@H](O[C@H]1[C@H](O)[C@H]2O)O[C@@H]7CO)O[C@@H]6CO)O[C@@H]5CO)O[C@@H]4CO)O[C@@H]3CO [α-Cyclodextrin, α-cyclodextrin]
[5]
  Product of transferring reaction, Enzyme of C11 strain: −
[6]
  Product of transferring reaction, Enzyme of C9 strain: −
[7]
  Product of transferring reaction, Enzyme of N75 strain: −
[8]
  Product of transferring reaction, Enzyme of A19 strain: −

## OC[C@H]1O[C@@H]2O[C@H]3[C@H](O)[C@@H](O)[C@@H](O[C@H]4[C@H](O)[C@@H](O)[C@@H](O[C@H]5[C@H](O)[C@@H](O)[C@@H](O[C@H]6[C@H](O)[C@@H](O)[C@@H](O[C@H]7[C@H](O)[C@@H](O)[C@@H](O[C@H]8[C@H](O)[C@@H](O)[C@@H](O[C@H]1[C@H](O)[C@H]2O)O[C@@H]8CO)O[C@@H]7CO)O[C@@H]6CO)O[C@@H]5CO)O[C@@H]4CO)O[C@@H]3CO [β-Cyclodextrin, β-cyclodextrin]
[5]
  Product of transferring reaction, Enzyme of C11 strain: −
[6]
  Product of transferring reaction, Enzyme of C9 strain: −
[7]
  Product of transferring reaction, Enzyme of N75 strain: −
[8]
  Product of transferring reaction, Enzyme of A19 strain: −

## OC[C@H]1O[C@@H]2O[C@H]3[C@H](O)[C@@H](O)[C@@H](O[C@H]4[C@H](O)[C@@H](O)[C@@H](O[C@H]5[C@H](O)[C@@H](O)[C@@H](O[C@H]6[C@H](O)[C@@H](O)[C@@H](O[C@H]7[C@H](O)[C@@H](O)[C@@H](O[C@H]8[C@H](O)[C@@H](O)[C@@H](O[C@H]9[C@H](O)[C@@H](O)[C@@H](O[C@H]1[C@H](O)[C@H]2O)O[C@@H]9CO)O[C@@H]8CO)O[C@@H]7CO)O[C@@H]6CO)O[C@@H]5CO)O[C@@H]4CO)O[C@@H]3CO [γ-Cyclodextrin, γ-cyclodextrin]
[5]
  Product of transferring reaction, Enzyme of C11 strain: −
[6]
  Product of transferring reaction, Enzyme of C9 strain: −
[7]
  Product of transferring reaction, Enzyme of N75 strain: −
[8]
  Product of transferring reaction, Enzyme of A19 strain: −

— patent publication US7592160B2, “Processes for producing isomaltose and isomaltitol and use thereof” (Kabushiki Kaisha Hayashibara Seibutsu Kagaku Kenkyujo, priority 2001, dated 2009)
